Oligonucleotides are written 5' to 3', each unit as a sugar letter and its base; * is a phosphorothioate linkage, no mark a phosphodiester; rarer units and linkages stand in square brackets, end groups in braces. Plain capitals give the bases only. e = 2'-O-(2-methoxyethyl) (MOE); l = locked nucleic acid (LNA); [5mC] = 5-methylcytosine; d = 2'-deoxy (DNA)
Test system: GRN mRNA
Experiment: GRN mRNA qPCR in SK-N-AS cells transfected with ASOs
Assay type: cell-based, human
Details: SK-N-AS; for hGRN mRNA FC / 120 nM FC (GRN mRNA): 120 nM
How it was run: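 Human neuroblastoma SK-N-AS cells transfected with ASOs at increasing concentrations (20 to 160 nM in initial titrations); GRN mRNA quantified by qPCR after 48 hours. Normalized to GAPDH and PPIA, fold change relative to steric non-targeting control ASO(s) (sNTC/CO-1589, with CO-3772 and CO-1929 in some series).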

[1] = Table 9, 48 hours post-transfection, normalized to CO-1589
[2] = Table 10, 48 hours, normalized to CO-1589
[3] = Table 12, normalized to CO-1589
[4] = Table 6, normalized to CO-3772, CO-1589 and CO-1929
[5] = Table 3, normalized to CO-3772 and CO-1589 (sNTC1)

CO-4649: ASO designed to target intergenic enhancers (eRNA) (antisense eT*eG*eG*eG*eA*e[5mC]*eA*eG*e[5mC]*eG*eT*eG*eG*eA*eT*eT*eA*eA*eT*eA)
hit identification (GRN mRNA dose escalation) (3.75 nM to 120 nM, 48 hours): initial hits | hGRN mRNA FC [1]: 1.2 FC | 3.75 nM FC (GRN mRNA) [2]: 1.2 FC | 7.5 nM FC (GRN mRNA) [2]: 1.2 FC | 15 nM FC (GRN mRNA) [2]: 1.3 FC | 30 nM FC (GRN mRNA) [2]: 1.2 FC | 60 nM FC (GRN mRNA) [2]: 1.2 FC | 120 nM FC (GRN mRNA) [2]: 1.3 FC

CO-6404: ASO based on parent ASO CO-3462 (antisense eG*eG*eT*eA*eG*eG*eA*eG*eA*eA*eT*e[5mC]*eG*e[5mC]*eT*eT*eT*eG*eG*eG*eA*eG*e[5mC]*eA)
30 nM FC (GRN mRNA) [3]: 1.3 FC | 60 nM FC (GRN mRNA) [3]: 1.3 FC | 120 nM FC (GRN mRNA) [3]: 1.5 FC

CO-4606: ASO designed to target intergenic enhancers (eRNA) (antisense eA*e[5mC]*eG*eT*eG*eA*eA*eG*eA*eG*e[5mC]*e[5mC]*eG*eG*eA*eG*eA*eT*eT*e[5mC])
hGRN mRNA FC [1]: 1.4 FC | 3.75 nM FC (GRN mRNA) [2]: 1.1 FC | 7.5 nM FC (GRN mRNA) [2]: 1.1 FC | 15 nM FC (GRN mRNA) [2]: 1.2 FC | 30 nM FC (GRN mRNA) [2]: 1.3 FC | 60 nM FC (GRN mRNA) [2]: 1.4 FC | 120 nM FC (GRN mRNA) [2]: 1.7 FC

CO-6400: ASO based on parent ASO CO-3462 (antisense eG*eT*eA*eG*eG*eA*eG*eA*eA*eT*e[5mC]*eG*e[5mC]*eT*eT*eT*eG*eG*eG*eA*eG*e[5mC])
30 nM FC (GRN mRNA) [3]: 1.1 FC | 60 nM FC (GRN mRNA) [3]: 1.3 FC | 120 nM FC (GRN mRNA) [3]: 1.3 FC

CO-6394: ASO based on parent ASO CO-3462 (antisense eT*eA*lG*eG*eA*lG*eA*eA*lT*e[5mC]*eG*l[5mC]*eT*eT*lT*eG*eG*lG*eA*eG)
30 nM FC (GRN mRNA) [3]: 1.1 FC | 60 nM FC (GRN mRNA) [3]: 0.9 FC | 120 nM FC (GRN mRNA) [3]: 1.3 FC

CO-4599: ASO designed to target intergenic enhancers (eRNA) (antisense eG*eG*e[5mC]*e[5mC]*eA*eA*e[5mC]*eT*eA*eT*e[5mC]*eA*eG*e[5mC]*eT*eT*eT*e[5mC]*e[5mC]*e[5mC])
hGRN mRNA FC [1]: 1.0 FC

CO-6396: ASO based on parent ASO CO-3462 (antisense eT*eA*eG*lG*eA*eG*eA*lA*eT*e[5mC]*eG*l[5mC]*eT*eT*eT*lG*eG*eG*eA*eG)
30 nM FC (GRN mRNA) [3]: 1.4 FC | 60 nM FC (GRN mRNA) [3]: 1.9 FC | 120 nM FC (GRN mRNA) [3]: 1.9 FC

CO-4620: ASO designed to target intergenic enhancers (eRNA) (antisense eG*eT*e[5mC]*e[5mC]*eA*eG*e[5mC]*eA*e[5mC]*eG*e[5mC]*eT*e[5mC]*eT*e[5mC]*eA*eG*e[5mC]*eA*e[5mC])
hGRN mRNA FC [1]: 1.0 FC

CO-4639: ASO designed to target intergenic enhancers (eRNA) (antisense eG*eA*eA*eA*eT*eT*eT*eA*eT*eG*e[5mC]*eG*eG*e[5mC]*e[5mC]*eA*e[5mC]*eT*eG*eT)
hGRN mRNA FC [1]: 1.1 FC

CO-4591: ASO designed to target intergenic enhancers (eRNA) (antisense eG*eA*eT*eA*eG*eT*eT*eG*eG*e[5mC]*e[5mC]*e[5mC]*e[5mC]*eT*e[5mC]*eG*eG*eA*eG*eT)
hGRN mRNA FC [1]: 1.1 FC

CO-6389: ASO based on parent ASO CO-3462 (antisense eT*eA*eG*lG*eA*dG*dA*lA*dT*d[5mC]*dG*l[5mC]*dT*dT*dT*lG*eG*eG*eA*eG)
30 nM FC (GRN mRNA) [3]: 1.0 FC | 60 nM FC (GRN mRNA) [3]: 1.0 FC | 120 nM FC (GRN mRNA) [3]: 2.1 FC

CO-6520: ASO based on parent ASO CO-3462 (antisense eT*eA*eG*eG*eA*eG*eA*eAeTe[5mC]eGe[5mC]eTeTeTeGeGeG*eA*eG)
30 nM FC (GRN mRNA) [3]: 1.0 FC | 60 nM FC (GRN mRNA) [3]: 1.2 FC | 120 nM FC (GRN mRNA) [3]: 0.8 FC

CO-4618: ASO designed to target intergenic enhancers (eRNA) (antisense eA*eT*eA*eG*eG*eT*e[5mC]*eA*eG*eG*eG*eA*eA*eT*eG*e[5mC]*e[5mC]*eG*e[5mC]*e[5mC])
hGRN mRNA FC [1]: 1.3 FC

CO-4587: ASO designed to target intergenic enhancers (eRNA) (antisense eT*eT*e[5mC]*eT*eA*eA*eA*e[5mC]*eG*e[5mC]*eG*eA*eA*eG*eT*eG*eG*eG*eT*eG)
hGRN mRNA FC [1]: 1.2 FC

CO-4456: mixed PO/PS bond version of CO-3431 (antisense eA*eT*eTeGe[5mC]eAeG*eT*eG*eA*e[5mC]*eG*e[5mC]*e[5mC]e[5mC]e[5mC]eGeT*eT*eA)
30 nM FC (GRN mRNA) [4]: 0.7 FC | 60 nM FC (GRN mRNA) [4]: 0.5 FC | 120 nM FC (GRN mRNA) [4]: 0.4 FC

CO-6405: ASO based on parent ASO CO-3462 (antisense eG*eG*eT*eA*eG*dG*dA*eG*dA*dA*eT*d[5mC]*dG*e[5mC]*dT*dT*eT*dG*dG*eG*eA*eG*e[5mC]*eA)
30 nM FC (GRN mRNA) [3]: 1.1 FC | 60 nM FC (GRN mRNA) [3]: 1.3 FC | 120 nM FC (GRN mRNA) [3]: 1.3 FC

CO-4353: LNA/PS modified ASO based on CO-3423 (antisense eG*eG*eA*e[5mC]*eT*lT*dG*dG*lG*dA*dG*lT*dG*dG*lT*eG*eA*e[5mC]*eT*eG)
30 nM FC (GRN mRNA) [5]: 1.4 FC | 60 nM FC (GRN mRNA) [5]: 1.4 FC | 120 nM FC (GRN mRNA) [5]: 1.8 FC

CO-6386: ASO based on parent ASO CO-3462 (antisense eG*e[5mC]*eG*eA*eG*e[5mC]*e[5mC]*eA*eG*e[5mC]*eT*e[5mC]*eA*eG*eT*eA*eG*e[5mC]*eT*e[5mC])
30 nM FC (GRN mRNA) [3]: 1.2 FC | 60 nM FC (GRN mRNA) [3]: 0.9 FC | 120 nM FC (GRN mRNA) [3]: 1.1 FC

CO-4635: ASO designed to target intergenic enhancers (eRNA) (antisense eG*eT*eT*eT*eG*e[5mC]*eA*eA*eT*eT*e[5mC]*eT*e[5mC]*eA*eG*eA*e[5mC]*e[5mC]*eT*eG)
hGRN mRNA FC [1]: 1.0 FC

CO-6437: ASO designed to target an intragenic enhancer RNA (eRNA) (eG*eA*e[5mC]*eA*eA*eA*eG*eA*e[5mC]*e[5mC]*e[5mC]*eA*e[5mC]*e[5mC]*e[5mC]*e[5mC]*eT*eG*eT*e[5mC])
hGRN mRNA FC (Table 11, 48 hours, normalized to CO-1589): 1.1 FC

CO-4614: ASO designed to target intergenic enhancers (eRNA) (antisense eT*eG*eA*e[5mC]*eT*eA*eG*eA*eG*eA*eA*eA*e[5mC]*eG*e[5mC]*eT*eT*eA*eG*eA)
hGRN mRNA FC [1]: 1.2 FC

CO-6518: ASO based on parent ASO CO-3462 (antisense eT*eA*eG*eGeAeGeAeAeTe[5mC]eGe[5mC]eTeTeTeGeGeG*eA*eG)
30 nM FC (GRN mRNA) [3]: 1.2 FC | 60 nM FC (GRN mRNA) [3]: 1.3 FC | 120 nM FC (GRN mRNA) [3]: 0.9 FC

CO-6399: ASO based on parent ASO CO-3462 (antisense eG*eT*eA*eG*eG*eA*dG*dA*dA*dT*d[5mC]*dG*d[5mC]*dT*dT*dT*eG*eG*eG*eA*eG*e[5mC])
30 nM FC (GRN mRNA) [3]: 1.3 FC | 60 nM FC (GRN mRNA) [3]: 1.6 FC | 120 nM FC (GRN mRNA) [3]: 1.9 FC

CO-4455: mixed PO/PS bond version of CO-3431 (antisense eA*eT*eTeGe[5mC]*eA*eG*eT*eG*eA*e[5mC]*eG*e[5mC]*e[5mC]*e[5mC]*e[5mC]eGeT*eT*eA)
30 nM FC (GRN mRNA) [4]: 0.5 FC | 60 nM FC (GRN mRNA) [4]: 0.4 FC | 120 nM FC (GRN mRNA) [4]: 0.4 FC

CO-4585: ASO designed to target intergenic enhancers (eRNA) (antisense eT*e[5mC]*eG*eA*eA*eT*e[5mC]*eT*e[5mC]*e[5mC]*eG*eG*e[5mC]*eT*e[5mC]*eT*eT*e[5mC]*eA*e[5mC])
hGRN mRNA FC [1]: 1.4 FC

CO-4642: ASO designed to target intergenic enhancers (eRNA) (antisense eG*eG*e[5mC]*eT*eG*e[5mC]*eA*eG*eA*eT*e[5mC]*eT*e[5mC]*eT*eA*eT*eA*eT*e[5mC]*eA)
hGRN mRNA FC [1]: 1.0 FC

CO-4645: ASO designed to target intergenic enhancers (eRNA) (antisense eA*e[5mC]*eA*eG*e[5mC]*eA*eG*eA*eA*e[5mC]*eA*eT*e[5mC]*e[5mC]*e[5mC]*eG*eT*eG*eA*eA)
hGRN mRNA FC [1]: 1.4 FC

CO-6522: ASO based on parent ASO CO-3462 (antisense eT*eA*eG*eG*eA*eG*eA*eA*eT*e[5mC]*eG*e[5mC]eTeTeTeGeGeG*eA*eG)
30 nM FC (GRN mRNA) [3]: 1.1 FC | 60 nM FC (GRN mRNA) [3]: 1.0 FC | 120 nM FC (GRN mRNA) [3]: 1.1 FC

CO-4627: ASO designed to target intergenic enhancers (eRNA) (antisense eA*e[5mC]*eT*e[5mC]*eA*eA*eT*eG*e[5mC]*eA*eT*eA*eG*e[5mC]*eA*eG*eA*eA*eT*eA)
hGRN mRNA FC [1]: 1.3 FC

CO-4615: ASO designed to target intergenic enhancers (eRNA) (antisense e[5mC]*eA*eT*eT*eT*e[5mC]*eA*e[5mC]*eA*e[5mC]*eT*eT*eG*eT*eA*eT*eG*eA*eG*e[5mC])
hGRN mRNA FC [1]: 1.0 FC

From patent publication US20250243488A1, “METHODS OF MODULATING PROGRANULIN EXPRESSION USING ANTISENSE OLIGONUCLEOTIDES TARGETING REGULATORY RNAS” (Camp4 Therapeutics Corporation, priority 2022, published 2025)
